Source: patent US6737383B1, “Herbicidal oxadiazolidines” (priority 1999, dated 2004)

What was measured:
hairy beggarticks = test: Test C postemergence hairy beggarticks; assay type: in vivo, Bidens pilosa; conditions: 0 to 100 scale, 0 no effect, 100 complete control
Outline: (§1)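 In this greenhouse assay, treated and untreated plants were kept for approximately 14 to 21 days following postemergence application, then rated by eye on a scale from 0 (no effect) to 100 (complete control).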

wild buckwheat = test: Test E wild buckwheat; assay type: in vivo, Polygonum convolvulus; conditions: Preemergence; for Wild buckwheat plant response rating (0 to 100 scale): Rate 250 g/ha
sugar beet = test: Test E sugar beet; assay type: in vivo, Beta vulgaris; conditions: Postemergence; for Plant response rating, Sugar beet: 0 to 100 scale; for Sugar beet plant response rating: Rate 250 g/ha, 0 to 100 scale where 0 is no effect and 100 is complete control
Experimental: (§2) Compounds evaluated in this test were formulated in a non-phytotoxic solvent mixture which included a surfactant and applied to plants that were in the 1- to 4-leaf stage (postemergence application). A mixture of sandy loam soil and greenhouse potting mix in a 60:40 ratio was used for the postemergence test.
(§3) Plantings of these crops and weed species were adjusted to produce plants of appropriate size for the postemergence test. All plant species were grown using normal greenhouse practices. Crop and weed species include annual bluegrass (Poa annua), blackgrass (Alopecurus myosuroides), black nightshade (Solanum nigra), chickweed (Stellaria media), common poppy (Papaver rhoeas), deadnettle (Lamium amplexicaule), downy brome (Bromus tectorum), field violet (Viola arvensis), galium (Galium aparine), green foxtail (Setaria viridis), Italian ryegrass (Lolium multiflorum), jointed goatgrass (Aegilops cylindrica), kochia (Kochia scoparia), lambsquarters (Chenopodium album), littleseed canarygrass (Phalaris minor), rape (Brassica napus), redroot pigweed (Amaranthus retroflexus), Russian thistle (Salsola kali), scentless chamomile (Matricaria inodora), spring barley (Hordeum vulgare), sugar beet (Beta vulgaris), sunflower (Helianthus annuus), ivyleaf speedwell (Veronica hederaefolia), spring wheat (Triticum aestivum), winter wheat (Triticum aestivum), wild buckwheat (Polygonum convolvulus), wild mustard (Sinapis arvensis), wild oat (Avena fatua), windgrass (Apera spica-venti) and winter barley (Hordeum vulgare).
(§4) Treated plants and untreated controls were maintained in a greenhouse for approximately 21 to 28 days, after which all treated plants were compared to untreated controls and visually evaluated. […] A dash response (-) means no test result.

wild poinsettia = test: Test C postemergence wild poinsettia; assay type: in vivo, Euphorbia heterophylla; conditions: 0 to 100 scale, 0 no effect, 100 complete control
Experimental: as §2, with “grown for various periods of time before treatment” for “in the 1- to 4-leaf stage”
(§5) Plantings of these crops and weed species were adjusted to produce plants of appropriate size for the postemergence test. All plant species were grown using normal greenhouse practices. Crop and weed species include arrowleaf sida (Sida rhombifolia), barnyardgrass (Echinochloa crus-galli), cocklebur (Xanthium strumarium), common ragweed (Ambrosia elatior), corn (Zea mays), cotton (Gossypium hirsutum), eastern black nightshade (Solanum ptycanthum), fall panicum (Panicum dichotomiflorum), field bindweed (Convolvulus arvensis), giant foxtail (Setaria faberii), hairy beggarticks (Bidens pilosa), ivyleaf morningglory (Ipomoea hederacea), johnsongrass (Sorghum halepense), ladysthumb smartweed (Polygonum persicaria), lambsquarters (Chenopodium album), large crabgrass (Digitaria sanguinalis), purple nutsedge (Cyperus rotundus), redroot pigweed (Amaranthus retroflexus), soybean (Glycine max), surinam grass (Brachiaria decumbens), velvetleaf (Abutilon theophrasti) and wild poinsettia (Euphorbia heterophylla).
(§6) Treated plants and untreated controls were maintained in a greenhouse for approximately 14, to 21 days, after which all treated plants were compared to untreated controls and visually evaluated. Plant response ratings, summarized in Table C, were based upon a 0 to 100 scale where 0 was no effect and 100 was complete control. A dash response (−) means no test result.

cocklebur = test: Test C postemergence cocklebur; assay type: in vivo, Xanthium strumarium; conditions: 0 to 100 scale, 0 no effect, 100 complete control
Outline: as §1

guineagrass = test: Test D guineagrass; assay type: in vivo, Panicum maximum; conditions: Postemergence, 0 to 100 scale
jointed goatgrass = test: Test E jointed goatgrass; assay type: in vivo, Aegilops cylindrica; conditions: Preemergence; for Jointed goatgra plant response rating (0 to 100 scale): Rate 250 g/ha
kochia = test: Test E kochia; assay type: in vivo, Kochia scoparia; conditions: Preemergence; for Kochia plant response rating (0 to 100 scale): Rate 250 g/ha
tall mallow = test: Test D tall mallow; assay type: in vivo, Malva sylvestris; conditions: Postemergence, 0 to 100 scale
common ragweed = test: Test D common ragweed; assay type: in vivo, Ambrosia elatior; conditions: Postemergence, 0 to 100 scale
littleseed canarygrass = test: Test E littleseed canarygrass; assay type: in vivo, Phalaris minor; conditions: Preemergence; for LS canarygrass plant response rating (0 to 100 scale): Rate 250 g/ha
soybean = test: Test C postemergence soybean; assay type: in vivo, Glycine max; conditions: 0 to 100 scale, 0 no effect, 100 complete control
Experimental: as §2, with “grown for various periods of time before treatment” for “in the 1- to 4-leaf stage”
as §5, §6

winter barley = test: Test E winter barley; assay type: in vivo, Hordeum vulgare; conditions: Postemergence; for Plant response rating, Barley (winter): 0 to 100 scale; for Barley (winter) plant response rating: Rate 250 g/ha, 0 to 100 scale where 0 is no effect and 100 is complete control
Experimental: as §2, §3, §4

crabgrass = test: Test A crabgrass; assay type: in vivo, Digitaria spp.; conditions: 0 to 10 scale where 0 is no effect and 10 is complete control
Outline: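 Visual injury score, 0 (no effect) to 10 (complete control), vs untreated controls at ~11 d in greenhouse. Pre: soil drench on sandy loam. Post: spray to runoff, 1–2 leaf stage.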

[1] = Rate 125 g/ha, 0 to 100 scale (0 no effect, 100 complete control)
[2] = Rate 500 g/ha, 0 to 100 scale where 0 is no effect and 100 is complete control
[3] = Rate 125 g/ha, 0 is no effect, 100 is complete control
[4] = Rate 500 g/ha, 0 is no effect, 100 is complete control
[5] = Rate 16 g/ha, 0 no injury, 100 complete control
[6] = Rate 32 g/ha, 0 no injury, 100 complete control
[7] = Rate 64 g/ha, 0 no injury, 100 complete control
[8] = Rate 125 g/ha, 0 no injury, 100 complete control

`CC(C)N(C(=O)n1oc(=O)n(C2CC2)c1=O)c1ccc(F)cc1` [Compound 242] was tested, and the “Plant response rating H. beggarticks” value (hairy beggarticks; Rate 1120 g/ha) was 90, the “Plant response rating, Wild buckwheat” value (wild buckwheat; [1]) was 60 and the “Wild buckwheat plant response rating (0 to 100 scale)” value (wild buckwheat) was 70. For the same compound, the “Plant response rating, Wild buckwheat” value (wild buckwheat; [2]) was 100, the “Plant response rating, Sugar beet” value (sugar beet; Rate 62 g/ha) was 50 and the “Plant response rating, Sugar beet” value (sugar beet; [3]) was 50. For the same compound, the “Sugar beet plant response rating” value (sugar beet) was 40, the “Plant response rating, Sugar beet” value (sugar beet; [4]) was 30 and the “Plant response rating Wild poinsettia” value (wild poinsettia; Rate 140 g/ha) was 0. For the same compound, the “Plant response rating Wild poinsettia” value (wild poinsettia; Rate 280 g/ha) was 0, the “Plant response rating Wild poinsettia” value (wild poinsettia; Rate 560 g/ha) was 0 and the “Plant response rating Wild poinsettia” value (wild poinsettia; Rate 1120 g/ha) was 85. The “Plant response rating, Cocklebur” value (cocklebur; Rate 140 g/ha) was 0, the “Plant response rating, Cocklebur” value (cocklebur; Rate 280 g/ha) was 0 and the “Plant response rating, Cocklebur” value (cocklebur; Rate 560 g/ha) was 0. The “Plant response rating, Cocklebur” value (cocklebur; Rate 1120 g/ha) was 20, the “Plant response rating, Guineagrass” value (guineagrass; [5]) was 0 and the “Plant response rating, Guineagrass” value (guineagrass; [6]) was 100. The “Guineagrass plant response rating” value (guineagrass; [7]) was 80, the “Plant response rating, Guineagrass” value (guineagrass; [7]) was 0 and the “Plant response rating, Guineagrass” value (guineagrass; [8]) was 100. The “Plant response rating, Guineagrass” value (guineagrass; Rate 250 g/ha) was 100, the “Plant response rating, Jointed goatgra” value (jointed goatgrass; [1]) was 65 and the “Jointed goatgra plant response rating (0 to 100 scale)” value (jointed goatgrass) was 80. The “Plant response rating, Jointed goatgra” value (jointed goatgrass; [2]) was 90, the “Plant response rating, Kochia” value (kochia; [1]) was 35 and the “Kochia plant response rating (0 to 100 scale)” value (kochia) was 50. For the same compound, the “Plant response rating, Kochia” value (kochia; [2]) was 60, the “Plant response rating, Tall Mallow” value (tall mallow; [5]) was 0 and the “Plant response rating, Tall Mallow” value (tall mallow; [6]) was 0. The “Tall Mallow plant response rating” value (tall mallow; [7]) was 50, the “Tall Mallow plant response rating” value (tall mallow; [8]) was 90 and the “Plant response rating, Tall Mallow” value (tall mallow; Rate 250 g/ha) was 100. The “Plant response rating, C. ragweed” value (common ragweed; [5]) was 50, the “Plant response rating, C. ragweed” value (common ragweed; [6]) was 30 and the “Plant response rating, C. ragweed” value (common ragweed; [7]) was 30. For the same compound, the “Plant response rating, C. ragweed” value (common ragweed; [8]) was 90, the “Plant response rating, C. ragweed” value (common ragweed; Rate 250 g/ha) was 100 and the “Plant response rating, LS canarygrass” value (littleseed canarygrass; [1]) was 100. The “LS canarygrass plant response rating (0 to 100 scale)” value (littleseed canarygrass) was 100, the “Plant response rating, LS canarygrass” value (littleseed canarygrass; [2]) was 100 and the “Plant response rating, Soybean” value (soybean; Rate 140 g/ha) was 20. For the same compound, the “Plant response rating, Soybean” value (soybean; Rate 280 g/ha) was 25, the “Plant response rating, Soybean” value (soybean; Rate 560 g/ha) was 25 and the “Plant response rating, Soybean” value (soybean; Rate 1120 g/ha) was 65. For the same compound, the “Plant response rating, Barley (winter)” value (winter barley; Rate 62 g/ha) was 20, the “Plant response rating, Barley (winter)” value (winter barley; [3]) was 0 and the “Barley (winter) plant response rating” value (winter barley) was 10. The “Plant response rating, Barley (winter)” value (winter barley; [4]) was 20.
For `CC(C)N(C(=O)n1oc(=O)n(C)c1=O)c1ccc(F)cc1` [Compound 138], the “Plant response rating H. beggarticks” value (hairy beggarticks; Rate 280 g/ha) was 10, the “Plant response rating H. beggarticks” value (hairy beggarticks; Rate 1120 g/ha) was 80 and the “Plant response rating, Wild buckwheat” value (wild buckwheat; [1]) was 50. The “Wild buckwheat plant response rating (0 to 100 scale)” value (wild buckwheat) was 100, the “Plant response rating, Sugar beet” value (sugar beet; Rate 125 g/ha) was 30 and the “Sugar beet plant response rating” value (sugar beet) was 10. The “Plant response rating Wild poinsettia” value (wild poinsettia; Rate 140 g/ha) was 0, the “Plant response rating Wild poinsettia” value (wild poinsettia; Rate 280 g/ha) was 0 and the “Plant response rating Wild poinsettia” value (wild poinsettia; Rate 560 g/ha) was 0. The “Plant response rating Wild poinsettia” value (wild poinsettia; Rate 1120 g/ha) was 70, the “Plant response rating, Cocklebur” value (cocklebur; Rate 140 g/ha) was 0 and the “Plant response rating, Cocklebur” value (cocklebur; Rate 280 g/ha) was 0. The “Plant response rating, Cocklebur” value (cocklebur; Rate 560 g/ha) was 0, the “Plant response rating, Cocklebur” value (cocklebur; Rate 1120 g/ha) was 0 and the “Plant response rating, Jointed goatgra” value (jointed goatgrass; [1]) was 65. For the same compound, the “Jointed goatgra plant response rating (0 to 100 scale)” value (jointed goatgrass) was 80, the “Plant response rating, Kochia” value (kochia; [1]) was 20 and the “Kochia plant response rating (0 to 100 scale)” value (kochia) was 40. The “Plant response rating, LS canarygrass” value (littleseed canarygrass; [1]) was 70, the “LS canarygrass plant response rating (0 to 100 scale)” value (littleseed canarygrass) was 85 and the “Plant response rating, Soybean” value (soybean; Rate 140 g/ha) was 10. For the same compound, the “Plant response rating, Soybean” value (soybean; Rate 280 g/ha) was 30, the “Plant response rating, Soybean” value (soybean; Rate 560 g/ha) was 30 and the “Plant response rating, Soybean” value (soybean; Rate 1120 g/ha) was 40. The “Plant response rating, Barley (winter)” value (winter barley; Rate 125 g/ha) was 0 and the “Barley (winter) plant response rating” value (winter barley) was 0.
`CC(C)N(C(=O)n1oc(=O)n(C2CCCCCC2)c1=O)c1ccc(F)cc1F` [Compound 342] was tested, and the “Plant response rating, Guineagrass” value (guineagrass; [5]) was 0, the “Plant response rating, Guineagrass” value (guineagrass; [6]) was 0 and the “Guineagrass plant response rating” value (guineagrass; [7]) was 0. The “Plant response rating, Guineagrass” value (guineagrass; [7]) was 80, the “Plant response rating, Guineagrass” value (guineagrass; [8]) was 50 and the “Plant response rating, Guineagrass” value (guineagrass; Rate 250 g/ha) was 90. The “Plant response rating, Tall Mallow” value (tall mallow; [5]) was 0, the “Plant response rating, Tall Mallow” value (tall mallow; [6]) was 0 and the “Tall Mallow plant response rating” value (tall mallow; [7]) was 0. For the same compound, the “Tall Mallow plant response rating” value (tall mallow; [8]) was 0, the “Plant response rating, Tall Mallow” value (tall mallow; Rate 250 g/ha) was 10 and the “Plant response rating, C. ragweed” value (common ragweed; [6]) was 0. The “Plant response rating, C. ragweed” value (common ragweed; [7]) was 0, the “Plant response rating, C. ragweed” value (common ragweed; [8]) was 0 and the “Plant response rating, C. ragweed” value (common ragweed; Rate 250 g/ha) was 100.
`CCN(CC)C(=O)n1oc(=O)n(-c2c(C)cccc2C)c1=O` [Compound 2] was tested, and the “Plant response rating, Crabgrass” value (crabgrass; Postemergence, Rate 1000 g/ha) was 0 and the “Plant response rating, Crabgrass” value (crabgrass; Pre-emergence, Rate 2000 g/ha) was 2.
